Assay results reported in publication PMC5823406, “Vehicle development, pharmacokinetics and toxicity of the anti-invasive agent 4-fluoro-3’,4’,5’-trimethoxychalcone in rodents” (PLoS ONE, 2018).
“And” between values parts separate entries of the source, which are not always exact repeats. Identical values can stand only once. Like-named read-outs stand apart in the source and are kept apart here.

Experiment: Whole-blood PK study (IV, IP and PO) in male CD-1 mice
Type: in vivo, mouse
Conditions: for Vd: read-out: Vss; for Tmax: CD-1, whole blood
Description: Nine male CD-1 mice (25–35 g) were obtained from Hilltop Labs. Duration of acclimation was at least two days. Animals were randomly assigned to the three dose groups (IV, PO, intraperitoneal (IP), N = 3 per group), healthy at the start of the trial, housed one per cage (conventional type with wood chip bedding material), identified by a cage label and maintained in a well-controlled temperature (20–24 C) and humidity (30%-70%) environment with 12 h light/dark cycles. Animals intended for IV dosing were fitted with a jugular vein cannula (JVC, procedure see rat plasma PK study above). The study was not blinded. Food was withheld from the animals for a minimum of 12 h prior to test article administration until 4 h post-dose. Water was offered ad libitum.
C16 was dosed in cassette together with two undisclosed compounds of similar chemical structure. The dose of each test article was 1 mg/kg (IV, JVC, 0.5 mg/mL) or 10 mg/kg (IP and PO gavage, 2 mg/mL). Two respective dosing solutions were prepared (protocol see above) containing 0.5 and 2 mg/mL of C16 (and equal concentrations of the other two test articles) in 20% DMSO / 10% (DMSO / Cremophor EL 1:1) / 70% H2O. Formulations were prepared one day prior to dosing and stored at 4 °C.
Blood samples were taken pre-dose and 5 (except for PO administration), 15, 30 min, 1, 2, 4, and 8 h after dosing. The samples were collected via the tail vein or by cardiac puncture (8 h time point). Blood (25 μL) was collected and pipetted into a tube with 25 μL heparinized water (1 μL of sodium heparin (1000 unit/ml) + 24 μL water) within 30 seconds of collection. The sample was pipetted up and down five times, immediately frozen on dry ice and stored at -60°C to -80°C until analyzed. No necropsy was performed.
Pharmacokinetic parameters were estimated by a non-compartmental model using WinNonlin (v5.2.1 or higher) software. The maximum plasma/blood concentrations (c0) after IV dosing were estimated by extrapolation of the first two time points back to t = 0. The maximum blood concentration (cmax) and the time to reach maximum blood drug concentration (tmax) after PO dosing were derived from the data. The area under the time-concentration curve (AUC) was calculated using the linear trapezoidal rule with calculation to the last quantifiable data point, and with extrapolation to infinity if applicable. Plasma/blood half-life (t1/2) was calculated from 0.693/slope of the terminal elimination phase. Mean residence time (MRT) was calculated by dividing the area under the moment curve (AUMC) by the AUC. Clearance (CL) was calculated from dose/AUC. Steady-state volume of distribution (Vss) was calculated from CL*MRT. Bioavailability was determined by dividing the individual dose-normalized PO AUC values by the respective average dose-normalized intravenous (IV) AUC value. Samples that were below the limit of quantification were not used in the calculation of averages, and were treated as zero for pharmacokinetic data analysis. […]
Sprague-Dawley rats at 10 mg/kg (in 100% DMSO). […]
c Bioavailability determined by dividing the individual dose normalized oral AUC last by the average dose normalized intravenous AUC last value. […]
The dosing solution was prepared as a cassette to contain all three test articles in the same solutions using a vehicle
consisting of 20% DMSO/10% (DMSO/Cremophor EL 1:1)/70% Milli-Q water.
Individual blood concentrations and pharmacokinetic parameters are shown in Table H through Table J. All data are
expressed as ng/mL of the free drug. Samples that were below the limit of quantification were not used in the
calculation of averages. Concentration versus time data are plotted in Fig D through Fig F.
Table H. Individual blood concentrations (ng/mL) and PK parameters for C16 after IV administration in male CD-1 mice at 1 mg/kg.
t (h) 0 (pre-dose) BLOQ BLOQ BLOQ
(1 picture or pasted object on this page, not shown here)

[1] = male, CD-1, mouse, whole blood, ip, 10 mg/kg, male CD-1 mouse, IP 10 mg/kg, average
[2] = male, CD-1, mouse, whole blood, ip, 10 mg/kg, mouse blood, IP 10 mg/kg, individual animals 4-6
[3] = male, CD-1, mouse, whole blood, iv, 1 mg/kg, male CD-1 mouse, IV 1 mg/kg, average
[4] = male, CD-1, mouse, whole blood, iv, 1 mg/kg, mouse blood, IV 1 mg/kg, individual animals 1-3
[5] = male, CD-1, mouse, whole blood, po, 10 mg/kg, male CD-1 mouse, PO 10 mg/kg, average
[6] = mouse blood, IP 10 mg/kg, individual animals 4-6, 10 mg/kg
[7] = mouse blood, IV 1 mg/kg, individual animals 1-3, 1 mg/kg
[8] = mouse blood, PO 10 mg/kg, individual animals 7-9, 10 mg/kg
[9] = whole blood, male CD-1 mouse, IP 10 mg/kg, average

## COc1cc(C(=O)/C=C/c2ccc(F)cc2)cc(OC)c1OC [C16, 4-fluoro-3’,4’,5’-trimethoxychalcone]
Male CD-1 mouse, IP 10 mg/kg
  time of maximum blood concentration: 15 min
Male CD-1 mouse, PO 10 mg/kg
  time of maximum blood concentration: 15 min
[1]
  AUC(0-inf): 114 ng·h/mL
  AUC(0-t): 109 ng·h/mL
  MRT last: 48 min
  half-life: 48 min
[2]
  AUC(0-inf): 101 ng·h/mL
  AUC(0-t): 99.2 ng·h/mL
  MRT last: 59.5 min
  half-life: 38.2 min
male, CD-1, mouse, whole blood, ip, 10 mg/kg, mouse blood, IP 10 mg/kg, individual animals 4-6, read-out: Bioavailability
  Bioavailability: 49.7%
male, CD-1, mouse, whole blood, ip, 10 mg/kg, mouse blood, IP 10 mg/kg, individual animals 4-6, read-out: cmax
  cmax: 90.3 ng/mL
male, CD-1, mouse, whole blood, ip, 10 mg/kg, mouse, IP 10 mg/kg, 0.25 h, animals 4-6, read-out: Individual blood concentration
  concentration at 0.25 h: 90.3 ng/mL
male, CD-1, mouse, whole blood, ip, 10 mg/kg, mouse, IP 10 mg/kg, 0.50 h, animals 4-6, read-out: Individual blood concentration
  concentration at 0.5 h: 48.2 ng/mL
male, CD-1, mouse, whole blood, ip, 10 mg/kg, mouse, IP 10 mg/kg, 1.0 h, animals 4-6, read-out: Individual blood concentration
  concentration at 1 h: 49.2 ng/mL
male, CD-1, mouse, whole blood, ip, 10 mg/kg, mouse, IP 10 mg/kg, 2.0 h, animals 4-6, read-out: Individual blood concentration
  concentration at 2 h: 13.4 ng/mL
male, CD-1, mouse, whole blood, ip, 10 mg/kg, whole blood, male CD-1 mouse, IP 10 mg/kg, average, read-out: Bioavailability
  Bioavailability: 54.7%
male, CD-1, mouse, whole blood, ip, 10 mg/kg, whole blood, male CD-1 mouse, IP 10 mg/kg, average, read-out: cmax
  cmax: 107 ng/mL
[3]
  AUC(0-inf): 22.4 ng·h/mL
  AUC(0-t): 20 ng·h/mL
  MRT last: 26 min
  clearance: 750 mL/min/kg
  half-life: 44.8 min
male, CD-1, mouse, whole blood, iv, 1 mg/kg, male CD-1 mouse, IV 1 mg/kg, average, extrapolated to t = 0
  C0: 76 ng/mL
[4]
  AUC(0-inf): 22.9 ng·h/mL
  AUC(0-t): 20.2 ng·h/mL
  MRT last: 25.6 min
  clearance: 727 mL/min/kg
  half-life: 49.4 min
  Vd: 32.8 L/kg
male, CD-1, mouse, whole blood, iv, 1 mg/kg, mouse, IV 1 mg/kg, 0.083 h, animals 1-3, read-out: Individual blood concentration
  concentration at 0.083 h: 46.4 ng/mL
male, CD-1, mouse, whole blood, iv, 1 mg/kg, mouse, IV 1 mg/kg, 0.25 h, animals 1-3, read-out: Individual blood concentration
  concentration at 0.25 h: 17.3 ng/mL
male, CD-1, mouse, whole blood, iv, 1 mg/kg, mouse, IV 1 mg/kg, 0.50 h, animals 1-3, read-out: Individual blood concentration
  concentration at 0.5 h: 8.4 ng/mL
male, CD-1, mouse, whole blood, iv, 1 mg/kg, mouse, IV 1 mg/kg, 1.0 h, animals 1-3, read-out: Individual blood concentration
  concentration at 1 h: 4.5 ng/mL
male, CD-1, mouse, whole blood, iv, 1 mg/kg, mouse, IV 1 mg/kg, 2.0 h, animals 1-3, read-out: Individual blood concentration
  concentration at 2 h: 2.28 ng/mL
male, CD-1, mouse, whole blood, iv, 1 mg/kg, whole blood, male CD-1 mouse, IV 1 mg/kg, average
  Vd: 32.6 L/kg
[5]
  AUC(0-t): 20.9 ng·h/mL
  MRT last: 82.8 min
male, CD-1, mouse, whole blood, po, 10 mg/kg, mouse blood, PO 10 mg/kg, individual animal 7
  half-life: 176 min
male, CD-1, mouse, whole blood, po, 10 mg/kg, mouse blood, PO 10 mg/kg, individual animals 7-9
  AUC(0-t): 23.2 ng·h/mL
male, CD-1, mouse, whole blood, po, 10 mg/kg, mouse blood, PO 10 mg/kg, individual animals 7-9, read-out: Bioavailability
  Bioavailability: 11.6%
male, CD-1, mouse, whole blood, po, 10 mg/kg, whole blood, male CD-1 mouse, PO 10 mg/kg, average, read-out: Bioavailability
  Bioavailability: 10.5%
male, CD-1, mouse, whole blood, po, 10 mg/kg, whole blood, male CD-1 mouse, PO 10 mg/kg, average, read-out: cmax
  cmax: 12.5 ng/mL
male, mouse blood, IP 10 mg/kg, individual animals 4-6
  Tmax: 15 min
male, mouse blood, IV 1 mg/kg, individual animals 1-3
  Tmax: 0 min
male, mouse blood, PO 10 mg/kg, individual animals 7-9
  Tmax: 15 min
[6]
  AUClast: 127 ng·h/mL and 101 ng·h/mL
  AUC∞: 134 ng·h/mL and 106 ng·h/mL
  Bioavailability: 63.7% and 50.6%
  Dose-normalized AUClast: 9.92 kg·ng·h/mL/mg and 12.7 kg·ng·h/mL/mg and 10.1 kg·ng·h/mL/mg
  Dose-normalized AUC∞: 10.1 kg·ng·h/mL/mg and 13.4 kg·ng·h/mL/mg and 10.6 kg·ng·h/mL/mg
  MRTlast: 57 min and 55 min
  cmax: 106 ng/mL and 125 ng/mL
  t1/2: 51.7 min and 54.1 min
[7]
  AUClast: 22.2 ng·h/mL and 17.5 ng·h/mL
  AUC∞: 24.7 ng·h/mL and 19.6 ng·h/mL
  CL: 673 mL/min/kg and 850 mL/min/kg
  MRTlast: 23.9 min and 28.6 min
  Vss: 27.2 L/kg and 37.7 L/kg
  c0: 75.8 ng/mL and 103 ng/mL and 49.1 ng/mL
  t1/2: 46.8 min and 38.2 min
[8]
  AUClast: 15.1 ng·h/mL and 24.5 ng·h/mL
  Bioavailability: 7.56% and 12.3%
  Dose-normalized AUClast: 2.32 kg·ng·h/mL/mg and 1.51 kg·ng·h/mL/mg and 2.45 kg·ng·h/mL/mg
  MRTlast: 100 min and 103 min and 46 min
  cmax: 8.76 ng/mL and 17.8 ng/mL and 10.9 ng/mL
mouse, 1 mg/kg IV, 10 mg/kg IP or PO, cassette
  Adverse reactions: No adverse reactions were observed
mouse, IP 10 mg/kg, 0.083 h, animals 4-6, 10 mg/kg
  Individual blood concentration: 28.2 ng/mL and 68.6 ng/mL and 64.5 ng/mL
mouse, IP 10 mg/kg, 0.25 h, animals 4-6, 10 mg/kg
  Individual blood concentration: 106 ng/mL and 125 ng/mL
mouse, IP 10 mg/kg, 0.50 h, animals 4-6, 10 mg/kg
  Individual blood concentration: 94.4 ng/mL and 56.3 ng/mL
mouse, IP 10 mg/kg, 1.0 h, animals 4-6, 10 mg/kg
  Individual blood concentration: 48.0 ng/mL and 32.1 ng/mL
mouse, IP 10 mg/kg, 2.0 h, animals 4-6, 10 mg/kg
  Individual blood concentration: 13.3 ng/mL and 12.1 ng/mL
mouse, IP 10 mg/kg, 4.0 h, animals 4-6, 10 mg/kg
  Individual blood concentration: 1.79 ng/mL and 5.29 ng/mL and 3.62 ng/mL
mouse, IP 10 mg/kg, 8.0 h, animals 4-6
  Individual blood concentration: BLOQ (BLOQ: Below the limit of quantitation (1 ng/mL))
mouse, IV 1 mg/kg, 0.083 h, animals 1-3, 1 mg/kg
  Individual blood concentration: 54.4 ng/mL and 33.4 ng/mL
mouse, IV 1 mg/kg, 0.25 h, animals 1-3, 1 mg/kg
  Individual blood concentration: 15.2 ng/mL and 15.4 ng/mL
mouse, IV 1 mg/kg, 0.50 h, animals 1-3, 1 mg/kg
  Individual blood concentration: 8.57 ng/mL and 10.9 ng/mL
mouse, IV 1 mg/kg, 1.0 h, animals 1-3, 1 mg/kg
  Individual blood concentration: 4.93 ng/mL and 3.76 ng/mL
mouse, IV 1 mg/kg, 2.0 h, animals 1-3, 1 mg/kg
  Individual blood concentration: 2.21 ng/mL and 2.30 ng/mL
mouse, IV 1 mg/kg, 4.0 h, animals 1-3
  Individual blood concentration: BLOQ (BLOQ: Below the limit of quantitation (1 ng/mL))
mouse, IV 1 mg/kg, 8.0 h, animals 1-3
  Individual blood concentration: BLOQ (BLOQ: Below the limit of quantitation (1 ng/mL))
mouse, PO 10 mg/kg, 0.25 h, animals 7-9, 10 mg/kg
  Individual blood concentration: 8.76 ng/mL and 17.8 ng/mL and 10.9 ng/mL
mouse, PO 10 mg/kg, 0.50 h, animals 7-9, 10 mg/kg
  Individual blood concentration: 7.95 ng/mL and 12.4 ng/mL and 5.89 ng/mL
mouse, PO 10 mg/kg, 1.0 h, animals 7-9, 10 mg/kg
  Individual blood concentration: 7.01 ng/mL and 5.15 ng/mL and 3.45 ng/mL
mouse, PO 10 mg/kg, 2.0 h, animals 7-9, 10 mg/kg
  Individual blood concentration: 6.19 ng/mL and 4.28 ng/mL and 10.5 ng/mL
mouse, PO 10 mg/kg, 4.0 h, animals 7-9, 10 mg/kg
  Individual blood concentration: 3.44 ng/mL and BLOQ (BLOQ: Below the limit of quantitation (1 ng/mL)) and 1.26 ng/mL
mouse, PO 10 mg/kg, 8.0 h, animals 7-9
  Individual blood concentration: BLOQ (BLOQ: Below the limit of quantitation (1 ng/mL))
[9]
  Dose-normalized AUClast: 10.9 kg·ng·h/mL/mg
  Dose-normalized AUC∞: 11.4 kg·ng·h/mL/mg
Whole blood, male CD-1 mouse, PO 10 mg/kg, average
  Dose-normalized AUClast: 2.09 kg·ng·h/mL/mg
